{
  "source": "patent US20250295679A1",
  "about": "“Compositions and Dosage Forms for Treatment of HPV Infection and HPV-Induced Neoplasia” (priority 2022, published 2025)",
  "key": {"[1]": {"test": "Hygroscopicity by DVS at 25° C.", "assay_type": "physicochemical", "settings": "cycle of 40-0-95-0-45% relative humidity"}, "[2]": {"test": "Bulk (accelerated) stability, one week, HPLC and XRPD", "settings": "for Bulk (HPLC) Purity: 1 week", "method": "Bulk stability: Accelerated stability experiments were conducted at 25° C./92% RH and 40° C./75% RH in an open container, 60° C. in a tight container for one week.\nSamples were characterized by XRPD and HPLC and inspected for color change.\nAccelerated stability experiments were conducted at 25° C./92% RH in an open container, at 40° C./75% RH in an open container, and at 60° C. in a tight container for one week."}, "[3]": {"test": "Polymorph screening by equilibration in solvents", "assay_type": "physicochemical"}, "[4]": {"test": "Solubility in buffers, water and simulated vaginal fluid at 37° C.", "settings": "for pH of solution at 2 hours: 37° C."}, "[5]": {"test": "Hygroscopicity by DVS at 25° C.", "assay_type": "physicochemical", "settings": "for XRPD after DVS test: 25° C.", "description": "Hygroscopicity was investigated by DVS at 25° C., using the following method: • Method: 40-0-95-0-40% RH, dm/dt=0.002"}, "[6]": {"settings": "37 °C, pH 3, aqueous buffer, thermodynamic from solid"}, "[7]": {"settings": "37 °C, pH 4.2, fassgf or other biorelevant, thermodynamic from solid"}, "[8]": {"settings": "37 °C, pH 4.5, aqueous buffer, thermodynamic from solid"}, "[9]": {"settings": "37 °C, pH 6.8, aqueous buffer, thermodynamic from solid"}, "[10]": {"settings": "37 °C, water, thermodynamic from solid"}},
  "data": [
    {"smiles": "CCOC(=O)[C@H](C)N[P@](=O)(COCCn1cnc2c(OC)nc(N)nc21)OCc1ccccc1.O=C(O)/C=C/C(=O)O", "note": "(single isomer, unassigned) [Compound III]", "values": [
      {"measurement": "Fold increase of retained water content over Compound II", "setting": "[1]", "result": 40, "unit": "fold"},
      {"measurement": "Stability after exposure to the three conditions", "setting": "[2]; 25° C./92% RH open, 40° C./75% RH open, 60° C. tight container, one week", "result": "good physical stability"},
      {"measurement": "Bulk (HPLC) Purity", "setting": "[2]; BS1: solid state, 25° C./92% RH, open container", "result": 98.7, "unit": "%"},
      {"measurement": "Bulk (HPLC) Purity", "setting": "[2]; BS2: solid state, 40° C./75% RH, open container", "result": 97.2, "unit": "%"},
      {"measurement": "Bulk (HPLC) Purity", "setting": "[2]; BS3: solid state, 60° C., tight container", "result": 97.3, "unit": "%"},
      {"measurement": "HPLC purity, Initial", "setting": "[2]; initial chemical purity before storage", "result": 98.8, "unit": "%"},
      {"measurement": "Crystal modification after 1 week equilibration at 25° C.", "setting": "[3]; PS1: IPA", "result": "Compound V Pattern 2"},
      {"measurement": "Crystal modification after 1 week equilibration at 25° C.", "setting": "[3]; PS2: Heptanes", "result": "Compound III Pattern 2"},
      {"measurement": "Crystal modification after 1 week equilibration at 25° C.", "setting": "[3]; PS3: Water", "result": "Compound III Pattern 3"},
      {"measurement": "Crystal modification after 1 week equilibration at 25° C.", "setting": "[3]; PS4: ACN", "result": "Compound III Pattern 4"},
      {"measurement": "Crystal modification after 1 week equilibration at 25° C.", "setting": "[3]; PS5: MEK", "result": "Compound III Pattern 5"},
      {"measurement": "Crystal modification after 1 week equilibration at 25° C.", "setting": "[3]; PS7: IPA/heptanes (3/10, v/v)", "result": "Compound III Pattern 2"},
      {"measurement": "Crystal modification after 1 week equilibration at 25° C.", "setting": "[3]; PS8: water/ACN (2.9/97.1, v/v)", "result": "Compound III Pattern 4"},
      {"measurement": "Crystal modification after 1 week equilibration at 25° C.", "setting": "[3]; PS9: IPA/MTBE (1/3, v/v)", "result": "Compound III Pattern 6"},
      {"measurement": "Crystal modification after 1 week equilibration at 25° C.", "setting": "[3]; PS10: EA/toluene (1/3, v/v)", "result": "Compound III Pattern 2"},
      {"measurement": "Dissociation of the salt during equilibration experiments", "setting": "[3]; equilibration in solvents, 1 week, 25° C.", "result": "dissociation was observed"},
      {"measurement": "solubility at 0.5 h", "setting": "[4]; [6]", "result": "> 2000", "unit": "µg/mL"},
      {"measurement": "solubility at 2 h", "setting": "[4]; [6]", "result": "> 2000", "unit": "µg/mL"},
      {"measurement": "solubility at 0.5 h", "setting": "[4]; [7]", "result": "> 2000", "unit": "µg/mL"},
      {"measurement": "solubility at 2 h", "setting": "[4]; [7]", "result": "> 2000", "unit": "µg/mL"},
      {"measurement": "solubility at 0.5 h", "setting": "[4]; [8]", "result": "> 2000", "unit": "µg/mL"},
      {"measurement": "solubility at 2 h", "setting": "[4]; [8]", "result": "> 2000", "unit": "µg/mL"},
      {"measurement": "solubility at 0.5 h", "setting": "[4]; [9]", "result": "> 2000", "unit": "µg/mL"},
      {"measurement": "solubility at 2 h", "setting": "[4]; [9]", "result": "> 2000", "unit": "µg/mL"},
      {"measurement": "solubility", "setting": "[4]; 37 °C, thermodynamic from solid", "result": "> 2000", "unit": "µg/mL"},
      {"measurement": "solubility at 0.5 h", "setting": "[4]; [10]", "result": "> 2000", "unit": "µg/mL"},
      {"measurement": "solubility at 2 h", "setting": "[4]; [10]", "result": "> 2000", "unit": "µg/mL"},
      {"measurement": "pH of solution at 2 hours", "setting": "[4]; ES1: pH 3.0, 100 mM citrate buffer", "result": 2.83},
      {"measurement": "pH of solution at 2 hours", "setting": "[4]; ES2: pH 4.5, 50 mM acetate buffer", "result": 4.12},
      {"measurement": "pH of solution at 2 hours", "setting": "[4]; ES3: pH 6.8, 50 mM phosphate buffer", "result": 6.44},
      {"measurement": "pH of solution at 2 hours", "setting": "[4]; ES4: Water", "result": 2.78},
      {"measurement": "pH of solution at 2 hours", "setting": "[4]; ES5: Simulated vaginal fluid (pH adjusted by 0.1N NaOH)", "result": 5.37},
      {"measurement": "Desorp. (%) Cycle 1", "setting": "[5]; DVS 25° C., 0% RH", "result": 0.00, "unit": "%"},
      {"measurement": "Desorp. (%) Cycle 2", "setting": "[5]; DVS 25° C., 0% RH", "result": 0.00, "unit": "%"},
      {"measurement": "Sorp. (%) Cycle 1", "setting": "[5]; DVS 25° C., 0% RH", "result": 0.00, "unit": "%"},
      {"measurement": "Sorp. (%) Cycle 2", "setting": "[5]; DVS 25° C., 0% RH", "result": 0.00, "unit": "%"},
      {"measurement": "Desorp. (%) Cycle 1", "setting": "[5]; DVS 25° C., 10% RH", "result": 0.07, "unit": "%"},
      {"measurement": "Desorp. (%) Cycle 2", "setting": "[5]; DVS 25° C., 10% RH", "result": 0.07, "unit": "%"},
      {"measurement": "Sorp. (%) Cycle 1", "setting": "[5]; DVS 25° C., 10% RH", "result": 0.07, "unit": "%"},
      {"measurement": "Sorp. (%) Cycle 2", "setting": "[5]; DVS 25° C., 10% RH", "result": 0.07, "unit": "%"},
      {"measurement": "Desorp. (%) Cycle 1", "setting": "[5]; DVS 25° C., 20% RH", "result": 0.15, "unit": "%"},
      {"measurement": "Desorp. (%) Cycle 2", "setting": "[5]; DVS 25° C., 20% RH", "result": 0.15, "unit": "%"},
      {"measurement": "Sorp. (%) Cycle 1", "setting": "[5]; DVS 25° C., 20% RH", "result": 0.14, "unit": "%"},
      {"measurement": "Sorp. (%) Cycle 2", "setting": "[5]; DVS 25° C., 20% RH", "result": 0.14, "unit": "%"},
      {"measurement": "Desorp. (%) Cycle 1", "setting": "[5]; DVS 25° C., 30% RH", "result": 0.23, "unit": "%"},
      {"measurement": "Desorp. (%) Cycle 2", "setting": "[5]; DVS 25° C., 30% RH", "result": 0.23, "unit": "%"},
      {"measurement": "Sorp. (%) Cycle 1", "setting": "[5]; DVS 25° C., 30% RH", "result": 0.22, "unit": "%"},
      {"measurement": "Sorp. (%) Cycle 2", "setting": "[5]; DVS 25° C., 30% RH", "result": 0.22, "unit": "%"},
      {"measurement": "Desorp. (%) Cycle 1", "setting": "[5]; DVS 25° C., 40% RH", "result": 0.30, "unit": "%"},
      {"measurement": "Desorp. (%) Cycle 2", "setting": "[5]; DVS 25° C., 40% RH", "result": 0.32, "unit": "%"},
      {"measurement": "Sorp. (%) Cycle 1", "setting": "[5]; DVS 25° C., 40% RH", "result": 0.29, "unit": "%"},
      {"measurement": "Sorp. (%) Cycle 2", "setting": "[5]; DVS 25° C., 40% RH", "result": 0.30, "unit": "%"},
      {"measurement": "Desorp. (%) Cycle 2", "setting": "[5]; DVS 25° C., 50% RH", "result": 0.41, "unit": "%"},
      {"measurement": "Sorp. (%) Cycle 1", "setting": "[5]; DVS 25° C., 50% RH", "result": 0.39, "unit": "%"},
      {"measurement": "Desorp. (%) Cycle 2", "setting": "[5]; DVS 25° C., 60% RH", "result": 0.52, "unit": "%"},
      {"measurement": "Sorp. (%) Cycle 1", "setting": "[5]; DVS 25° C., 60% RH", "result": 0.47, "unit": "%"},
      {"measurement": "Desorp. (%) Cycle 2", "setting": "[5]; DVS 25° C., 70% RH", "result": 0.67, "unit": "%"},
      {"measurement": "Sorp. (%) Cycle 1", "setting": "[5]; DVS 25° C., 70% RH", "result": 0.59, "unit": "%"},
      {"measurement": "Desorp. (%) Cycle 2", "setting": "[5]; DVS 25° C., 80% RH", "result": 0.81, "unit": "%"},
      {"measurement": "Sorp. (%) Cycle 1", "setting": "[5]; DVS 25° C., 80% RH", "result": 0.71, "unit": "%"},
      {"measurement": "Desorp. (%) Cycle 2", "setting": "[5]; DVS 25° C., 90% RH", "result": 0.97, "unit": "%"},
      {"measurement": "Sorp. (%) Cycle 1", "setting": "[5]; DVS 25° C., 90% RH", "result": 0.92, "unit": "%"},
      {"measurement": "Desorp. (%) Cycle 2", "setting": "[5]; DVS 25° C., 95% RH", "result": 1.01, "unit": "%"},
      {"measurement": "Sorp. (%) Cycle 1", "setting": "[5]; DVS 25° C., 95% RH", "result": 1.01, "unit": "%"},
      {"measurement": "Hygroscopicity", "setting": "[5]; DVS at 25° C., in words", "result": "slightly hygroscopic"},
      {"measurement": "XRPD after DVS test", "setting": "[5]; after DVS 40-0-95-0-40% RH", "result": "No form change"},
      {"measurement": "XRPD after DVS test", "setting": "[5]; after humidity cycle 40-0-95-0-40% RH, listed as Compound III Pattern 2, monofumarate", "result": "No form change"},
      {"measurement": "XRPD after DVS test", "setting": "[5]; after humidity cycle 40-0-95-0-40% RH, monofumarate", "result": "lose one of the peaks"},
      {"measurement": "Water uptake", "setting": "[5]; up to / in 95% RH, DVS 25° C.", "result": "about 1.0%"}
    ]}
  ]
}
